# Source: article PMC6588349 (eLife, 2019)
# Assays:
# [1] = Gramicidin-based fluorescence quench assay for changes of lipid bilayer properties (LUVs); format: physicochemical; settings: 1 to 10 µM
# Excerpt: To further probe this, we used a fluorescence quench assay for drug-induced changes of lipid bilayer properties ([Ingólfsson and Andersen, 2010]) (Figure 6—figure supplement 3A; see Materials and methods), in which changes in gramicidin channel function is used as a reporter of membrane modification. […] The persistent BINA response is thus consistent with a model where BINA readily partitions into the plasma membrane lipid bilayer (and possibly other lipidic compartments).
# The gramicidin-based fluorescence assay has been described previously ([Ingólfsson and Andersen, 2010]). In brief, large unilamellar vesicles (LUVs), loaded with intravesicular ANTS were prepared from DC22:1PC and gramicidin (weight ratio 1000:1, corresponding to a ~ 2000:1 molar ratio) using freeze-drying, extrusion and size-exclusion chromatography; the final lipid concentration was 4–5 mM; the suspension was stored in the dark at 12.5°C for a maximum of 7 days. […] Before use, the LUV-ANTS stock was diluted to 200–250 μM lipid with NaNO3 buffer (140 mM NaNO3, 10 mM HEPES, pH 7).
# The NAMs and PAMs (dissolved in DMSO) or DMSO (as control) were added to a LUV-ANTS sample and equilibrated at 25°C in the dark for 10 min. before the mixture was loaded into a stopped-flow spectrofluorometer (Applied Photophysics SX.20, Leatherhead, UK) and mixed with either NaNO3 buffer or TlNO3 buffer; Tl^+ (thallous ion) is a gramicidin channel-permeant quencher of the ANTS fluorescence. Samples were excited at 352 nm and the fluorescence signal above 455 nm was recorded in the absence (four successive trials) or presence (nine successive trials) of the quencher. All the NAM and PAM derivatives fluoresce to varying degrees and addition of these drugs to LUVs in control experiments without gA or Tl^+ increased the fluorescence signal, and each signal was normalized to account for the compound's fluorescence. […] The quench rate (Rate), the rate of Tl^+ influx, was determined at 2 ms: Rate=β/τ0⋅(t/τ0)^β−1|2ms […]
# [2] = molecular target: T1, full-length mGluR2 (SNAP-mGluR2) (Rattus norvegicus, UniProt P31421); test: GIRK activation assay, whole cell patch clamp, HEK 293T cells expressing full-length mGluR2; format: cell-based; settings: for EC50: read-out: GIRK activation EC50
# T1 construct: HEK 293T cells expressing full-length mGluR2; expressed in transfected cells; host or cells: HEK 293T
# Protocol: (§1) Cells were cultured in DMEM with 5% FBS on poly-L-lysine-coated glass coverslips. DNA plasmids were transfected into cells using Lipofectamine 3000 (Thermo Fisher). […] For single-molecule pulldown (SiMPull) experiments, cells were transfected with 0.7 μg DNA of HA and SNAP-tagged receptor constructs, unless otherwise noted.
# Whole-cell patch clamp recordings from single isolated cells were performed 24–36 hr after transfection in a high-potassium extracellular solution containing (in mM): 120 KCl, 29 NaCl, 1 MgCl2, 2 CaCl2 and 10 HEPES, pH 7.4. Cells were voltage clamped to −60 mV using an Axopatch 200B amplifier (Axon Instruments) and membrane currents were recorded. Glass pipettes of resistance between 3 and 8 MΩ were filled with intracellular solution containing (in mM): 140 KCl, 10 HEPES, 3 Na2ATP, 0.2 Na2GTP, 5 EGTA and 3 MgCl2, pH 7.4. Data were acquired with a 2 kHz acquisition rate and filtered with the amplifier 4-pole Bessel filter at 1 kHz. Drugs were prepared in extracellular solution and applied using a gravity-driven perfusion system. Data were analyzed with Clampfit (Molecular Devices) and Prism (GraphPad). Data for all conditions came from at least two separate transfections.
# SNAP-mGluR2-TMD = molecular target: T2, SNAP-mGluR2-TMD (Rattus norvegicus, UniProt P31421); test: Inter-TMD FRET assay in living HEK 293T cells; format: cell-based; settings: for EC50: SNAP-mGluR2-TMD labeled with donor and acceptor, normalized to saturating LY48, mean ± s.e.m., read-out: inter-TMD FRET increase EC50
# T2 construct: mGluR2-TMD (rat) starts at Q558; expressed in transfected cells; host or cells: HEK 293T
# Excerpt: We therefore sought to develop a FRET sensor that reports on activation-associated motions driven by allosteric drugs and hypothesized that an N-terminal fluorophore on the isolated TMD should report on any inter-TMD rearrangement while allowing the receptor to maintain G-protein coupling (Figure 3A). […] To test if LBD-independent inter-TMD rearrangement is a feature of other mGluRs, we asked if donor and acceptor conjugation to SNAP-mGluR5-TMD would allow for the detection a FRET response to a PAM.
# as §1, with “noted. For FRET experiments, cells were transfected with either SNAP-tagged constructs at 0.5–0.7 μg of DNA/well or SNAP and CLIP-tagged constructs at a ratio of 1:2 with 0.3 μg of SNAP DNA/well.” for “noted.”
# (§2) Fluorophores were diluted in EX solution, which was also used to wash coverslips following labeling and prior to mounting on the microscope. After labeling, cells were mounted on an inverted microscope (Olympus IX73) and imaged with a 60x objective. […] Clusters of cells were analyzed together using ImageJ and FRET was calculated as FRET=(IAcceptor)/(IDonor +IAcceptor) where I is fluorescence intensity. No corrections were made for bleed-through between channels or the contribution of donor-donor or acceptor-acceptor dimers as analysis was limited to relative FRET changes between drug treatments rather than absolute FRET values. […] FRET changes calculated for dose–response curves were normalized to the response to saturating […] applied within the same recording and dose–response curves were obtained from multiple cell clusters and averaged from at least three separate experiments. Dose–response curves were fit using Prism (Graphpad). All drugs were purchased from Tocris, prepared in EX solution, and delivered with a gravity-driven perfusion system. For kinetics measurements a pressurized perfusion system (Automate Scientific) was used to produce a flow rate of 0.5 mL/s. Kinetic analysis was performed in Microsoft Excel. The time between 10% and 90% FRET increase or decrease was determined manually. For photo-bleaching/donor-recovery experiments, images were taken in donor and acceptor channels at baseline and again followed by a 1 min exposure to 640 nm laser illumination at maximum intensity. All experiments were performed at room temperature. All data were produced from at least two separate transfections for each condition.
# [3] = molecular target: T3, SNAP-mGluR2 (full-length) (Rattus norvegicus, UniProt P31421); test: Inter-LBD FRET assay with full-length SNAP-mGluR2; format: cell-based; settings: drug applied alone, saturating concentrations
# T3 construct: HEK 293T cells expressing full-length mGluR2; expressed in transfected cells; host or cells: HEK 293T
# Excerpt: We next sought to further probe the variation in PAM-induced inter-TMD FRET changes. […] We used an inter-LBD FRET assay to assess the relative strength of allosteric modulation by different mGluR2 PAMs. Agonists induce a decrease in FRET between fluorophore-conjugated N-terminal SNAP- and CLIP-tags (Figure 4E). […] We tested this effect for all PAMs by applying a saturating concentration of DCG-IV followed by co-application of a saturating concentration of each PAM, which produced further FRET decreases (Figure 4F,G).
# as §2
# SNAP-mGluR2 = molecular target: T4, SNAP-mGluR2 (Rattus norvegicus, UniProt P31421); test: Single-molecule pulldown (SiMPull) photobleaching step counting, full-length SNAP-mGluR2; settings: saturating (1 mM) glutamate
# T4 construct: HEK 293T cells expressing full-length mGluR2; expressed in transfected cells; host or cells: HEK 293T
# Protocol: To restrict our analysis to surface-targeted receptors, we expressed N-terminally SNAP-tagged receptor variants and labeled them with membrane-impermeable fluorophores.
# To test this, we incubated SNAP-mGluR2-TMD expressing cells and lysates with PAMs or NAMs during the SiMPull experiment.
# Briefly, to prevent non-specific sticking of proteins, flow chambers were prepared with mPEG-passivated glass slides and coverslips doped with ~1% biotinylated mPEG, as previously described. Prior to each experiment, chambers were incubated with 0.2 mg/mL NeutrAvidin (ThermoFisher) for 2 min followed by 10 nM of a biotinylated anti-HA antibody (abcam ab26228) for 20–30 min. After each conjugation step, the chambers were washed with T50 buffer (50 mM NaCl, 10 mM Tris, pH 7.5).
# After labeling, cells were dissociated from coverslips by incubating with Ca^2+-free PBS for 20 min followed by gentle pipetting. […] Following 1 hr of lysis at 4°C, cells were centrifuged at 16,000 g for 20 min before the supernatant was collected and maintained on ice. The cell lysate was diluted in a 0.1% detergent dilution buffer to obtain sparse immobilization of labeled protein on the passivated slide. […]
# Single molecules were imaged with a 100x objective on an inverted microscope (Olympus IX73) in total internal reflection fluorescence (TIRF) mode. […]
# SNAP-mGluR5-TMD = SNAP-mGluR5-TMD (Homo sapiens, UniProt P41594); test: Inter-TMD FRET assay with SNAP-mGluR5-TMD; format: cell-based, H. sapiens; settings: mGluR5 PAM applied alone
# Chain of SNAP-mGluR5-TMD (P41594 570-876 limits assumed): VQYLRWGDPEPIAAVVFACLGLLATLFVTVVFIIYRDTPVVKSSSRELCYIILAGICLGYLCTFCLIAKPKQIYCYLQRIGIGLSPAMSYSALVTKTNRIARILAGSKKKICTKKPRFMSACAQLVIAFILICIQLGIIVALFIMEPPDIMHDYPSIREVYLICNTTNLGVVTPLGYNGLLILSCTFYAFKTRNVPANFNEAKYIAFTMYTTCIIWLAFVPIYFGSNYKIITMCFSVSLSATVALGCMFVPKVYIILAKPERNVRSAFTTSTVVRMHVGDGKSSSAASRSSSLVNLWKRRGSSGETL
# T1 sequence (P31421 19-872): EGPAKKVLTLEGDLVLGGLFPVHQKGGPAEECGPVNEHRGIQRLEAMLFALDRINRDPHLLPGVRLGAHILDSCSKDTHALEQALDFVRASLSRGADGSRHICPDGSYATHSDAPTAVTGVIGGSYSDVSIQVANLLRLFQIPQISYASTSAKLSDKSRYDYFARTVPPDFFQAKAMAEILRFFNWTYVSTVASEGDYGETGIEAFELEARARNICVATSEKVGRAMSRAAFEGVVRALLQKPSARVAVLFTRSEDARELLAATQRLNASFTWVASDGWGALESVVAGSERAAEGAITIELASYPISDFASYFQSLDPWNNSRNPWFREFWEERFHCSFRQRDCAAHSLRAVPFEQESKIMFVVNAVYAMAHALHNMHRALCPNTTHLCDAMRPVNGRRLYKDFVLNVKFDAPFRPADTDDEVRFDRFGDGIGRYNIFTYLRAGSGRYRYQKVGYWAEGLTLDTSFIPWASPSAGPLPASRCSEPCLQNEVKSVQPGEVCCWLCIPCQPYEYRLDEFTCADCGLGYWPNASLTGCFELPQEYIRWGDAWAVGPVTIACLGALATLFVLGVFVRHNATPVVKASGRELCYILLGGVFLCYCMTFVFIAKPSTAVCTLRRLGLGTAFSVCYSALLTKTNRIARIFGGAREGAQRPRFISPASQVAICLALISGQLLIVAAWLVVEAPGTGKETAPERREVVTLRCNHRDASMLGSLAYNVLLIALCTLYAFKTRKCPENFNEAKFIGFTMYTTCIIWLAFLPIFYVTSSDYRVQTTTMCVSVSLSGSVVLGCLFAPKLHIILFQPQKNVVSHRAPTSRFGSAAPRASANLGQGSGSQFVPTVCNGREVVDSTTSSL
# T3 sequence (P31421 19-872): as above
# T2 sequence (P31421 558-872 limits assumed): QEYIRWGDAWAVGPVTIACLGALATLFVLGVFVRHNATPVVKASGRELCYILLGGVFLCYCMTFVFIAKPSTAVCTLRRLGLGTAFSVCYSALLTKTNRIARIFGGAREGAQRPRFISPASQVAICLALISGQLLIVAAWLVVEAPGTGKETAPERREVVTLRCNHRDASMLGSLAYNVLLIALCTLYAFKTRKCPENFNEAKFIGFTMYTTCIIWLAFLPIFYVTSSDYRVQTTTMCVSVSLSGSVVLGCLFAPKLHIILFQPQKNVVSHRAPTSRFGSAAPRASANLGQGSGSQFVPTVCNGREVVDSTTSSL
# T4 sequence (P31421 19-872): as the sequence (P31421 19-872) above
Structure (SMILES),EC50 [2],EC50 (SNAP-mGluR2-TMD),inter-TMD FRET response onset (SNAP-mGluR2-TMD; saturating concentrations),inter-TMD FRET response reversal (SNAP-mGluR2-TMD; saturating concentrations),direct effect on inter-LBD FRET (no orthosteric agonist for modulators) [3],also measured
Cc1c(OCc2cccc(-c3ccc(C(=O)O)cc3)c2)cc2c(c1C)C(=O)C(C1CCCC1)C2 (stereo not drawn) [BINA],,,,,,changes in gramicidin channel function (membrane properties) [1]: greatest changes in gramicidin channel function
N[C@@H](CCC(=O)O)C(=O)O [Glutamate],,,,,large FRET decrease,"GIRK current time 10% to 90% ([2]; saturating: 10 µM LY48, 1 mM Glutamate): 1.9 ± 0.5 s; two-step bleaching events of SNAP-mGluR2 with glutamate (SNAP-mGluR2): ~ 60%"
O=C(NC1CCC1)c1ccc(C#Cc2cccc(F)c2)nc1 [VU0360172],,,,,,inter-TMD FRET response of SNAP-mGluR5-TMD (SNAP-mGluR5-TMD): reversible FRET response
"O=C(O)c1cc(O)c2cccc(O)c2n1 [XA, Xanthurenic acid]",,,,,,"inter-TMD FRET response to drug alone (SNAP-mGluR2-TMD; drug applied alone, XA up to 50 µM): neither inter-TMD FRET changes"

# More lines, main results first:
EC50 [2],EC50 (SNAP-mGluR2-TMD),inter-TMD FRET response onset (SNAP-mGluR2-TMD; saturating concentrations),inter-TMD FRET response reversal (SNAP-mGluR2-TMD; saturating concentrations),direct effect on inter-LBD FRET (no orthosteric agonist for modulators) [3],Structure (SMILES),also measured
460 ± 200 nM,3500 ± 200 nM,10 to 40 s,< 2 min,no FRET response,CCS(=O)(=O)N(Cc1cccnc1)c1cccc(-c2ccc(C#N)cc2)c1 [CBiPES],inter-TMD FRET kinetics relative to LY48 (SNAP-mGluR2-TMD): substantially faster ON and OFF kinetics
380 ± 110 nM,900 ± 100 nM,10 to 40 s,< 2 min,no FRET response,Cc1c(C(N)=O)nc2n1C[C@@H](COc1ccc(C(C)(C)C)cc1)O2 [TASP],"maximum inter-TMD FRET increase relative to LY48 (SNAP-mGluR2-TMD; saturating concentrations, compared to saturating LY48): ~ 1.3 times that of LY48"
